Assay results as given in US8835498B2, “Anti-wrinkle agents” (Pola Chemical Industries Inc., priority 2008, dated 2014).

System: hairless mice
Test: Evaluation of wrinkle-reducing effect using photoaging model (UVB-irradiated hairless mice, replica wrinkle score)
Format: in vivo
Details: 0.5% by mass in ethanol (lotion), 100 μL once a day for 8 weeks on dorsal portions after 10 weeks of UVB irradiation; replicas scored visually 1 to 6; vs ethanol control
Protocol: A wrinkle-reducing effect of Cosmetic 1 above was evaluated in a test using a photoaging model.
A total of ten hairless mice, which were six-week-old at the time of the start of a test, were used and divided into two groups each consisting of five mice, i.e., a control group (ethanol solvent administration group) and a sample administration group. The dorsal portions of the hairless mice were irradiated with UVB at a frequency of once a day and three times a week for 10 consecutive weeks to induce photoaging. The UVB irradiation amount was set to 50 mJ/cm^2 for the first week and to 100 mJ/cm^2 on week 2 or later.
In the sample administration group, Cosmetic 1 above was administered to the dorsal portions of the hairless mice. Cosmetic 1 started to be administered to the dorsal portions of the hairless mice on the following day after the completion of the UVB irradiation for 10 weeks, and administered at a dose of 100 μL once a day for 8 weeks. In the control group, the same treatments were performed as those in sample administration group except that ethanol was administered in place of Cosmetic 1 (Lotion 1) in Table 1. […] The scoring operation was performed by three measurers separately and evaluated visually with scores of 1 to 6 at intervals of 0.5. An average value of the results was calculated.

CSCC(NC(=O)c1ccc(C)cc1)C(=O)O (stereo not shown) [Compound 2, [S-methyl-N-toluyl]cysteine]
wrinkle-reducing effect (wrinkle score): excellent wrinkle-reducing effects
